Target: T1, LTB4 receptors (Homo sapiens, UniProt Q15722)
T1 construct: neutrophils were purified from venous blood of normal human donors; endogenous in cells; host or cells: human neutrophils purified from venous blood of normal donors
Assay: LTB4 Receptor Binding Assay (inhibition of specific (3H) LTB4 binding to neutrophils)
Conditions: 0.6nM (3H) LTB4, human neutrophils, 0°C, 45 minutes, pH 7.4
Protocol: Neutrophils (4-6×10^6) in 1ml of Hanks' balanced salt solution containing 10mM Hepes Buffer (HBSS), pH 7.4 and 30 μM nordihydroguaiaretic acid were incubated with 0.6nM (^3 H) LTB4 in the presence or absence of test compounds. The incubation was carried out at 0°C. for 45 minutes and terminated by adding 5ml of ice-cold HBSS followed by rapid filtration of incubation mixture under vacuum through GF/C glass fiber filters. The filters were further washed with 10ml HBSS and their radioactivity determined. Specific binding was defined as the difference between total binding and nonspecific binding which was not displaced by 10^- 7M unlabeled LTB4.

T1 sequence (Q15722 whole entry): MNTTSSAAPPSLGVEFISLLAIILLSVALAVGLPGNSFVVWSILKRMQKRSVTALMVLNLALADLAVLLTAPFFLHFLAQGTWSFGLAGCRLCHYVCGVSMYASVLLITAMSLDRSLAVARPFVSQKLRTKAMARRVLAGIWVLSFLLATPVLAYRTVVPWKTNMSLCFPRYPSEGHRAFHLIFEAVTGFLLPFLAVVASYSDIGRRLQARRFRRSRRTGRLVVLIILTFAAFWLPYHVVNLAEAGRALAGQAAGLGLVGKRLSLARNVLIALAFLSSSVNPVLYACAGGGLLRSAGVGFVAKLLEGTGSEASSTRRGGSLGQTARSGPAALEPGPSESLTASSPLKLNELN

Row | Compound | IC50 [µM]
1 | CCCCCCCCC(O)/C=C/C=C/c1ccccc1C(=O)CCCC(=O)O (stereo not drawn) | 3
2 | CCCCCCCCC(O)/C=C/C=C/c1ccc(C(=O)CCCC(=O)O)s1 (stereo not drawn) | 4.1
3 | CCCCCCCCC(O)/C=C/C=C/c1ccc(C(O)CCCC(=O)O)s1 (stereo not drawn) | 6.3

Tested on: Human Neutrophil
Assay: Human Neutrophil Degranulation Assay (LTB4 induced, myeloperoxidase release)
Type: cell-based
Conditions: LTB4 5×10^-8 M, cytochalasin B, 37°C, read-out: Inhibition of LTB4 Induced Neutrophil Degranulation IC50
Source text: For use in both the "LTB4 receptor Binding Assay" and the "human Neutrophil Degranulation Assay", neutrophils were purified from venous blood of normal human donors using standard techniques of dextran sedimentaion, centrifugation on Histopaque^2 (density solution) and hypotonic lysis of erythrocytes (Boyum, A., Isolation of Leukocytes From Human Blood: Further Observations. Scand. J. Lab. Clin. Inves. 21 (Suppl. 97): 31, 1968). The purity of isolated neutrophilis was ≥95%.
LTB4 induced neutrophil degranulation was determined by measuring the release of myeloperoxidase activity into the incubation medium. Neturophils (3 ×10^6) in 1ml HBSS solution were preincubated with cytochalasin B(5μg) at 37°C. for 5 minutes, followed by preincubation with test compounds for 7 minutes. Neutrophils were then incubated for 2 to 20 minutes with either LTB4 (5 ×10^- 8M) or the chemotatic peptide f-met-leu-phe (5 ×10^- 6M) to induce degranulation. Following incubation, samples were centrifuged and myeloperoxidase was extracted from the cell pellets by sonication in phoshpate buffer containing 0.4% Triton X-100. Triton X-100 was also added to the supernatents to a concentration of 0.4%. The supernatants and the pellet extracts were then assayed spectrophotometrically for myeloperoxide activity by determining the rate of decomposition of H2 O2 withh o-dianisidine as hydrogen donor as described by Renlund, D. G., MacFarlane, J. L., Christensen, R. D., Lynch, R. E., and Rothstein, G., A Quantitative And Sensitive Method For Measurement Of Myeloperoxidase, Clinical Research 28:75A, 1980). Myeloperoxidase activity released into the supernatant was expressed as the percent of the average total activity (pellet plus supernatant).
The inhibition of LTB4 induced neutrophil degranulation was determined for representative compounds of this invention and their corresponding IC50 values were calculated (Table 1). The concentration of a compound which inhibited LTB4 induced neutrophil degranulation by 50% was determined to be its IC50 value.

Row | Compound | IC50 [µM]
4 | CCCCCCCCC(O)/C=C/C=C/c1ccccc1C(=O)CCCC(=O)O (stereo not drawn) | 1
5 | CCCCCCCCC(O)/C=C/C=C/c1ccc(C(=O)CCCC(=O)O)s1 (stereo not drawn) | 1.8
6 | CCCCCCCCC(O)/C=C/C=C/c1ccc(C(O)CCCC(=O)O)s1 (stereo not drawn) | 5.2

Tested on: not listed separately
Assay: Boyden Chamber Inhibition (as Antagonist)
Type: cell-based
Conditions: at 10^-5 (concentration unit not given)

Row | Compound | Boyden Chamber Inhibition at 10^-5 (as Antagonist) [%]
7 | CCCCCCCCC(O)/C=C/C=C/c1ccccc1C(=O)CCCC(=O)O (stereo not drawn) | 8
8 | CCCCCCCCC(O)/C=C/C=C/c1ccc(C(=O)CCCC(=O)O)s1 (stereo not drawn) | 30
9 | CCCCCCCCC(O)/C=C/C=C/c1ccc(C(O)CCCC(=O)O)s1 (stereo not drawn) | 33

From patent US4855324A, “Furyl, phenylene, and thienyl leukotriene B4 analogues” (G. D. Searle & Co., priority 1988, dated 1989)
